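1) Cells in 96-well plates. 2) Compound, 48 h, 5 concentrations. 3) Linear interpolation between surrounding doses. 4) Unreached endpoint = highest concentration. The concentration for full growth arrest is given as TGI.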
Assays:
Assay in all cases: NCI-60 cell line screen, 48 h
[1] = tested on: DU-145 prostate
[2] = tested on: SK-MEL-2 melanoma
[3] = tested on: K-562 leukemia
[4] = tested on: SK-OV-3 ovarian
[5] = tested on: HS 578T breast
[6] = tested on: SF-539 CNS
[7] = tested on: RXF 393 renal
[8] = tested on: MCF7 breast
[9] = tested on: SR leukemia
[10] = tested on: OVCAR-5 ovarian

Compound `NCCN1CCCCCc2ccccc21` has a TGI [1] greater than 10 µM, a TGI [2] greater than 10 µM and a TGI [3] greater than 10 µM. For the same compound, the TGI [4] was greater than 10 µM, the TGI [5] was greater than 10 µM and the TGI [6] was greater than 10 µM. The TGI [7] was greater than 10 µM, the TGI [8] was greater than 10 µM and the TGI [9] was greater than 10 µM.
Compound `CCCCI(O)OS(=O)(=O)c1ccc(C)cc1` has a TGI [10] greater than 100 µM, a TGI [1] greater than 100 µM and a TGI [2] greater than 100 µM. It also gave a TGI [3] greater than 100 µM, a TGI [4] greater than 100 µM and a TGI [5] greater than 100 µM. It also gave a TGI [6] greater than 100 µM, a TGI [7] greater than 100 µM and a TGI [8] greater than 100 µM. It also gave a TGI [9] of 73.3 µM.
`COc1ccc2nc(NC(=O)/C(C#N)=C/c3ccccc3)sc2c1` showed a TGI [10] greater than 100 µM, a TGI [1] greater than 100 µM and a TGI [2] greater than 100 µM. It also gave a TGI [3] greater than 95.2 µM, a TGI [4] greater than 100 µM and a TGI [5] greater than 100 µM. For the same compound, the TGI [6] was greater than 100 µM, the TGI [7] was greater than 100 µM and the TGI [8] was greater than 100 µM. The TGI [9] was 21.9 µM.
`CC(C)NC(=O)OCc1c(COC(=O)NC(C)C)n(C)c2c1ccc1sccc12` gave a TGI [10] greater than 100 µM, a TGI [1] of 21.1 µM and a TGI [2] of 36.2 µM. For the same compound, the TGI [3] was greater than 52.2 µM, the TGI [4] was greater than 100 µM and the TGI [5] was 34.6 µM. The TGI [6] was 26 µM, the TGI [7] was 39.9 µM and the TGI [8] was greater than 55.5 µM. It also gave a TGI [9] greater than 64.6 µM.
In the case of `c1ccc(C2=NC3OC2c2ccccc23)cc1` (centres undefined), the TGI [10] is reported as greater than 10 µM, the TGI [1] is reported as greater than 10 µM and the TGI [2] is reported as greater than 10 µM. It also gave a TGI [3] greater than 10 µM, a TGI [4] greater than 10 µM and a TGI [5] greater than 10 µM. For the same compound, the TGI [6] was greater than 10 µM, the TGI [7] was greater than 10 µM and the TGI [8] was greater than 10 µM. It also gave a TGI [9] greater than 10 µM.
Work on `[N-]=[N+]=CC(=O)C1CCCN1C(=O)c1ccccc1` (centres undefined) yielded a TGI [10] greater than 10 µM, a TGI [1] greater than 10 µM and a TGI [2] greater than 10 µM. For the same compound, the TGI [3] was greater than 10 µM, the TGI [4] was greater than 10 µM and the TGI [5] was greater than 10 µM. For the same compound, the TGI [6] was greater than 10 µM, the TGI [7] was greater than 10 µM and the TGI [8] was greater than 10 µM. The TGI [9] was greater than 10 µM.
With `Cc1c(C)n(-c2ccccc2)c2nc(S(C)=O)nc(S(C)=O)c12` (centres undefined) the TGI [10] was 28.9 µM, the TGI [1] was 27.5 µM and the TGI [2] was 10.1 µM. It also gave a TGI [3] of 4.28 µM, a TGI [4] of 32.4 µM and a TGI [5] of 70.5 µM. It also gave a TGI [6] of 14.7 µM, a TGI [7] of 14.4 µM and a TGI [8] of 7.1 µM. It also gave a TGI [9] of 2.82 µM.
`Cc1ccc2c(c1C)C(=O)C1(Cc3cc4c(cc3C1=O)CCC4)C2` (centres undefined) gave a TGI [10] greater than 100 µM, a TGI [1] greater than 100 µM and a TGI [2] greater than 100 µM. The TGI [3] was greater than 100 µM, the TGI [4] was greater than 100 µM and the TGI [5] was greater than 100 µM. The TGI [6] was greater than 100 µM, the TGI [7] was greater than 100 µM and the TGI [8] was greater than 100 µM. For the same compound, the TGI [9] was greater than 100 µM.
In the case of `OCc1cn(Cc2ccccc2)c2ccccc12`, the TGI [10] is reported as 0.838 µM, the TGI [1] is reported as greater than 37.2 µM and the TGI [2] is reported as 24.6 µM. The TGI [3] was greater than 100 µM, the TGI [4] was greater than 100 µM and the TGI [5] was 30.4 µM. It also gave a TGI [6] greater than 69 µM, a TGI [7] of 4.53 µM and a TGI [8] greater than 18 µM. It also gave a TGI [9] greater than 100 µM.
`CC1(C)CC(=O)C2=C(C1)C(c1ccccc1Cl)C1C(=O)CC(C)(C)CC1(O)O2` (centres undefined) showed a TGI [10] greater than 100 µM, a TGI [1] greater than 100 µM and a TGI [2] greater than 100 µM. It also gave a TGI [3] greater than 100 µM, a TGI [4] greater than 100 µM and a TGI [5] greater than 100 µM. The TGI [6] was greater than 100 µM, the TGI [7] was greater than 100 µM and the TGI [8] was greater than 100 µM. The TGI [9] was greater than 100 µM.
For `CN(C)CCN(c1ccccn1)c1ccccn1`, the TGI [10] was greater than 100 µM, the TGI [1] was greater than 100 µM and the TGI [2] was greater than 100 µM. The TGI [3] was greater than 100 µM, the TGI [4] was greater than 100 µM and the TGI [5] was greater than 100 µM. For the same compound, the TGI [6] was greater than 100 µM, the TGI [7] was greater than 100 µM and the TGI [8] was greater than 100 µM. The TGI [9] was greater than 100 µM.
`Cc1nnc2n(c1=O)CCCN2C` gave a TGI [10] greater than 100 µM, a TGI [1] greater than 100 µM and a TGI [2] greater than 100 µM. For the same compound, the TGI [3] was greater than 100 µM, the TGI [4] was greater than 100 µM and the TGI [5] was greater than 100 µM. The TGI [6] was greater than 100 µM, the TGI [7] was greater than 100 µM and the TGI [8] was greater than 100 µM. It also gave a TGI [9] greater than 100 µM.
`CC(C)C(Br)CCC1=CCC(Br)(Br)C1` (centres undefined) was tested, and the TGI [10] was 30.5 µM, the TGI [1] was 32.5 µM and the TGI [2] was 19.3 µM. It also gave a TGI [3] greater than 100 µM, a TGI [4] of 28.1 µM and a TGI [5] of 47.4 µM. For the same compound, the TGI [6] was 33.7 µM, the TGI [7] was 29 µM and the TGI [8] was 23.9 µM. The TGI [9] was greater than 100 µM.
In the case of `COC(=O)CNC(=O)C(CSC(=O)OCC1c2ccccc2-c2ccccc21)NC(=O)CCC(NC(=O)OCC1c2ccccc2-c2ccccc21)C(=O)OC` (centres undefined), the TGI [10] is reported as 76.7 µM, the TGI [1] is reported as greater than 100 µM and the TGI [2] is reported as 31.1 µM. The TGI [3] was 82.7 µM, the TGI [4] was 74.6 µM and the TGI [5] was greater than 100 µM. The TGI [6] was 37.8 µM, the TGI [7] was 32 µM and the TGI [8] was 42.8 µM. The TGI [9] was 37.5 µM.
In the case of `COC(=O)[C@]1(C)CCC[C@@]2(C)C1CC[C@]13C=C(C(C)C)[C@H](CC21)CC3(Cl)C#N` (some centres undefined), the TGI [10] is reported as greater than 100 µM, the TGI [1] is reported as greater than 100 µM and the TGI [3] is reported as greater than 100 µM. It also gave a TGI [4] greater than 100 µM, a TGI [5] greater than 100 µM and a TGI [6] greater than 100 µM. It also gave a TGI [7] of 97.5 µM, a TGI [8] greater than 100 µM and a TGI [9] greater than 100 µM.
`CCOC(=O)CSc1nc(N)c2c(-c3ccccc3)c3c(nc2n1)CCCC3` was tested, and the TGI [10] was greater than 100 µM, the TGI [1] was greater than 100 µM and the TGI [2] was greater than 100 µM. For the same compound, the TGI [3] was greater than 100 µM, the TGI [4] was greater than 100 µM and the TGI [5] was greater than 100 µM. For the same compound, the TGI [6] was greater than 100 µM, the TGI [7] was greater than 100 µM and the TGI [8] was greater than 100 µM. For the same compound, the TGI [9] was greater than 100 µM.
In the case of `Clc1cccc(-c2sc(-c3cccs3)cc2Cc2cccs2)c1`, the TGI [1] is reported as greater than 10 µM, the TGI [3] is reported as greater than 10 µM and the TGI [4] is reported as greater than 10 µM. The TGI [5] was greater than 10 µM, the TGI [6] was greater than 10 µM and the TGI [7] was greater than 10 µM. It also gave a TGI [8] greater than 10 µM and a TGI [9] greater than 10 µM.
`COc1cccc(C2c3cc4c(cc3OC(O)C2C)OCO4)c1OC` (centres undefined) gave a TGI [10] of 60.9 µM, a TGI [1] of 26.2 µM and a TGI [2] of 25.6 µM. For the same compound, the TGI [3] was 15.5 µM, the TGI [5] was 32.8 µM and the TGI [6] was 26.8 µM. It also gave a TGI [7] of 23.5 µM, a TGI [8] greater than 100 µM and a TGI [9] of 11.3 µM.
`COc1ccc2ccc3oc(=O)c(C)cc3c2c1` was tested, and the TGI [10] was greater than 100 µM, the TGI [1] was greater than 100 µM and the TGI [2] was greater than 100 µM. For the same compound, the TGI [3] was greater than 100 µM, the TGI [5] was greater than 100 µM and the TGI [6] was greater than 100 µM. For the same compound, the TGI [7] was greater than 100 µM, the TGI [8] was greater than 100 µM and the TGI [9] was greater than 100 µM.
